This assay concerns Abp1 PPIs. As to the kind of experiment: DHFR-PCA of Abp1 SH3-swapped baits (Fig. 2B-D, S2C, S2F). It counts as cell-based, Saccharomyces cerevisiae. The note with it: Fig2B; bait ABP1, label = prey; Replicates 4. From the text: Having determined that multiple PPIs require SH3s, we asked whether the latter establish PPI specificity independently from their host proteins by swapping domains (Fig. 2A). Using the second round of genome editing, we individually replaced Abp1 SH3 with the 27 yeast SH3s and 3 human Abp1 orthologs’ SH3s (CTTN, HCLS1, and DBNL, Fig. 2B). The reintroduction of its own SH3 (Abp1SH3 in Abp1) reconstitutes almost perfectly Abp1’s interaction profile (Kendall’s τ = 0.93, Fig. 2B). […] No homologous SH3 domain fully re-establishes the normal Abp1 PPI profile (Fig. 2B and Supplementary Fig. 2C). However, we observe a significant correlation (cophenetic correlation = 0.20, p value = 0.005, Fig. 2C) between the similarity of PPI profiles (Fig. 2B) and the sequence similarity of the SH3s. […] Nonetheless, a subset of SH3-dependent PPIs is only observed with the endogenous domain. For instance, Hua2 and App1, both well-characterized partners of Abp1[14],[18],[19], are only detected when Abp1 contains its own SH3 (WT or swapped via editing). A given SH3 may therefore not be fully replaceable with other paralogous or orthologous domains. This pattern is confirmed by cellular growth phenotypic analyses (Supplementary Fig. 2D, E). PPIs, SH3 sequence similarity, and growth profiles under stress conditions are correlated (Supplementary Fig. 2D, E). This relationship is particularly clear when analyzing growth on media supplemented with hygromycin.
The stuffing of YSC84 SH3 rendered the strain sterile and was therefore not used for this study as the assays require crosses. For genes containing two SH3s (BZZ1 and BEM1), a combination of this first stuffer with a second one ([…]) coding for a highly similar linker ([…]) was used, which allowed targeting each SH3 position independently. The two N-terminal domains of SLA1, which are separated by six nucleotides, were stuffed by a single stuffer. Cells containing pCAS were selected via the G418 resistance cassette from the plasmid on YPD plates (YPD + NAT 100 μg/ml (DHFR F[1,2] selection) + G418 200 µg/mL (Bioshop Canada)). Colonies were randomly selected and grown in YPD media without G418 to allow plasmid loss. The correct insertion of the stuffer was validated by PCR and Sanger sequencing. The SH3-swapped, -shuffled, and -mutated strains were constructed following a second CRISPR–Cas9 editing step with the same procedures. The stuffer sequences were targeted by specific gRNAs (one gRNA per stuffer) and replaced by PCR amplified specific SH3 (with 40 bp homology arms) or libraries of mutated SH3 domains for Deep Mutational Scanning (DMS) with 78 bp flanking homology regions. Validation of the SH3 domain insertions was done as we previously described except for DMS libraries (see below).
The overall DHFR-PCA pipeline is based on Tarassov et al.[43] and the procedures have also been published as a visualized protocol. The screens were performed with robotically manipulated pin tools (BM5-SC1, S&P Robotics Inc.). First, the preys were cherry-picked from 96-well plates to omnitrays in a 384 format on YPD + HPH solid media. Plates were then combined into the 1536 format on YPD + HPH. The array was constituted of 575 preys previously shown to interact physically with at least one SH3-containing protein as reported in BioGRID V3.4.16 along with 40 negative controls. The prey array comprised a border of control strains of two rows and two columns corresponding to the PPI between LSM8-DHFR F[1,2] and CDC39-DHFR F[3]. This double border was used to remove border effects. Preys are present in duplicate at a randomized position in the 1536 array (except for YAL041W which is present four times per array). Baits were crossed with two prey plates, resulting in four independent bait–prey tests for each PPI. Baits were grown in liquid YPD + NAT and then transferred on solid YPD + NAT omnitrays. They were then replicated on YPD + NAT omnitrays in 1536 array format. […]

Regarding YAL005C, the “medrep (log2 median colony size normalized to plate background)” value stood at 5.43 and the “medsize (median colony size)” value was determined as 6098.

The record behind these values is paper PMC7954794, “Protein context shapes the specificity of SH3 domain-mediated interactions in vivo” (Nature Communications, 2021).
